According to PubChem BioAssay AID1745844 (Carcinogenic Potency Database (CPDB), 2022):
Values joined by “and” are separate entries in the source; they are usually repeats but may differ in a detail not shown here. Equal entries are not always repeated. Active and inactive are the calls of the source. The rule behind the calls is not given here.

Test system: rodent lifetime carcinogenesis bioassay, tumor incidence TD50
Assay: carcinogenic potency in animals, long-term in vivo studies, CPDB compilation (AID 1745844)

CCN(CC)C(=O)c1cccc(C)c1
TD50 (mouse, strain Charles River CD1, females, in feed, site: liver, lesion: hepatocellular adenoma, dosed 78 weeks, study length 78 weeks): 150000 mg/kg/day (inactive) | TD50 (mouse, strain Charles River CD1, females, in feed, site: liver, lesion: hepatocellular carcinoma, dosed 78 weeks, study length 78 weeks): 87000 mg/kg/day (inactive) | TD50 (mouse, strain Charles River CD1, females, in feed, site: lung, lesion: alveolar/bronchiolar adenoma, dosed 78 weeks, study length 78 weeks): 14500 mg/kg/day (inactive) | TD50 (mouse, strain Charles River CD1, males, in feed, site: liver, lesion: hepatocellular adenoma, dosed 78 weeks, study length 78 weeks): 2580 mg/kg/day (inactive) | TD50 (mouse, strain Charles River CD1, males, in feed, site: liver, lesion: hepatocellular carcinoma, dosed 78 weeks, study length 78 weeks): 11500 mg/kg/day (inactive) | carcinogen call (mouse, strain Charles River CD1, males, in feed, site: lung, lesion: alveolar/bronchiolar adenoma, dosed 78 weeks, study length 78 weeks): negative (inactive) | TD50 (rat, strain Charles River CD (Sprague-Dawley), females, in feed, site: liver, lesion: hepatocellular adenoma, dosed 104 weeks, study length 104 weeks): 16700 mg/kg/day (inactive) | carcinogen call (rat, strain Charles River CD (Sprague-Dawley), females, in feed, site: liver, lesion: hepatocellular carcinoma, dosed 104 weeks, study length 104 weeks): negative (inactive) | TD50 (rat, strain Charles River CD (Sprague-Dawley), males, in feed, site: liver, lesion: hepatocellular adenoma, dosed 104 weeks, study length 104 weeks): 3390 mg/kg/day (inactive) | carcinogen call (rat, strain Charles River CD (Sprague-Dawley), males, in feed, site: liver, lesion: hepatocellular carcinoma, dosed 104 weeks, study length 104 weeks): negative (inactive)

S=C([S-])NCCNC(=S)[S-].[Mn+2]
TD50 (mouse, strain B6AKF1, females, oral dosing, site: any site (literature study), lesion: several types, types named in the paper, dosed 76 weeks, study length 76 weeks): 138 mg/kg/day (inactive) | carcinogen call (mouse, strain B6AKF1, females, oral dosing, site: liver, lesion: hepatoma, dosed 76 weeks, study length 76 weeks): negative (inactive) | carcinogen call (mouse, strain B6AKF1, females, oral dosing, site: lung, lesion: adenoma, dosed 76 weeks, study length 76 weeks): negative (inactive) | TD50 (mouse, strain B6AKF1, males, oral dosing, site: any site (literature study), lesion: several types, types named in the paper, dosed 76 weeks, study length 76 weeks): 106 mg/kg/day (inactive) | carcinogen call (mouse, strain B6AKF1, males, oral dosing, site: liver, lesion: hepatoma, dosed 76 weeks, study length 76 weeks): negative (inactive) | TD50 (mouse, strain B6AKF1, males, oral dosing, site: lung, lesion: adenoma, dosed 76 weeks, study length 76 weeks): 54.9 mg/kg/day (inactive) | carcinogen call (mouse, strain B6C3F1, females, oral dosing, site: any site (literature study), lesion: one or several types, types not named, dosed 76 weeks, study length 76 weeks): negative (inactive) | carcinogen call (mouse, strain B6C3F1, females, oral dosing, site: liver, lesion: hepatoma, dosed 76 weeks, study length 76 weeks): negative (inactive) | carcinogen call (mouse, strain B6C3F1, females, oral dosing, site: lung, lesion: several types, types named in the paper, dosed 76 weeks, study length 76 weeks): negative (inactive) | TD50 (mouse, strain B6C3F1, males, oral dosing, site: any site (literature study), lesion: several types, types named in the paper, dosed 76 weeks, study length 76 weeks): 62.3 mg/kg/day (inactive) | TD50 (mouse, strain B6C3F1, males, oral dosing, site: liver, lesion: hepatoma, dosed 76 weeks, study length 76 weeks): 128 mg/kg/day (inactive) | TD50 (mouse, strain B6C3F1, males, oral dosing, site: lung, lesion: adenoma, dosed 76 weeks, study length 76 weeks): 128 mg/kg/day (inactive) | TD50 (rat, strain Mongrel, both sexes, by gavage, site: any site (literature study), lesion: several types, types named in the paper, dosed 95 weeks, study length 104 weeks): 157 mg/kg/day

O=C1CCC(=O)O1
carcinogen call (mouse, strain B6C3F1, females, by gavage, site: any site (literature study), lesion: several types, types named in the paper, dosed 103 weeks, study length 104 weeks): negative (inactive) | TD50 (mouse, strain B6C3F1, females, by gavage, site: lung, lesion: alveolar/bronchiolar adenoma + alveolar/bronchiolar carcinoma, dosed 103 weeks, study length 104 weeks): 4690 mg/kg/day | carcinogen call (mouse, strain B6C3F1, males, by gavage, site: any site (literature study), lesion: several types, types named in the paper, dosed 103 weeks, study length 104 weeks): negative (inactive) | carcinogen call (rat, strain Fischer 344, females, by gavage, site: any site (literature study), lesion: several types, types named in the paper, dosed 103 weeks, study length 105 weeks): negative (inactive) | TD50 (rat, strain Fischer 344, females, by gavage, site: liver, lesion: hepatocellular adenoma + hepatocellular carcinoma + neoplastic nodule, dosed 103 weeks, study length 105 weeks): 1300 mg/kg/day | carcinogen call (rat, strain Fischer 344, males, by gavage, site: any site (literature study), lesion: several types, types named in the paper, dosed 103 weeks, study length 105 weeks): negative (inactive)

COc1ccc([N+](=O)[O-])cc1N=Nc1c(O)c(C(=O)Nc2cccc([N+](=O)[O-])c2)cc2ccccc12
TD50 (mouse, strain B6C3F1, females, in feed, site: any site (literature study), lesion: several types, types named in the paper, dosed 103 weeks, study length 103 weeks): 29700 mg/kg/day (inactive) | TD50 (mouse, strain B6C3F1, females, in feed, site: lung, lesion: alveolar/bronchiolar adenoma + alveolar/bronchiolar carcinoma, dosed 103 weeks, study length 103 weeks): 45200 mg/kg/day | TD50 (mouse, strain B6C3F1, males, in feed, site: any site (literature study), lesion: several types, types named in the paper, dosed 103 weeks, study length 103 weeks): 20200 mg/kg/day (inactive) | TD50 (mouse, strain B6C3F1, males, in feed, site: liver, lesion: hepatocellular adenoma + hepatocellular carcinoma + neoplastic nodule, dosed 103 weeks, study length 103 weeks): 15100 mg/kg/day | TD50 (mouse, strain B6C3F1, males, in feed, site: lung, lesion: alveolar/bronchiolar adenoma + alveolar/bronchiolar carcinoma, dosed 103 weeks, study length 103 weeks): 112000 mg/kg/day | carcinogen call (rat, strain Fischer 344, females, in feed, site: any site (literature study), lesion: several types, types named in the paper, dosed 103 weeks, study length 104 weeks): negative (inactive) | TD50 (rat, strain Fischer 344, males, in feed, site: kidney, lesion: tubule adenoma + tubule carcinoma, dosed 103 weeks, study length 104 weeks): 19800 mg/kg/day and 16300 mg/kg/day

COC(=O)C1=C(C)NC(C)=C(C(=O)OCCc2ccc(N3CCN(C(c4ccccc4)c4ccccc4)CC3)cc2)C1c1cccc([N+](=O)[O-])c1 (stereo not given)
TD50 (mouse, strain B6C3F1, females, in feed, site: any site (literature study), lesion: several types, types named in the paper, dosed 78 weeks, study length 78 weeks): 293 mg/kg/day (inactive) | TD50 (mouse, strain B6C3F1, females, in feed, site: liver, lesion: hepatocellular adenoma, dosed 78 weeks, study length 78 weeks): 714 mg/kg/day (inactive) | carcinogen call (mouse, strain B6C3F1, females, in feed, site: lung, lesion: adenocarcinoma, dosed 78 weeks, study length 78 weeks): negative (inactive) | TD50 (mouse, strain B6C3F1, females, in feed, site: lung, lesion: alveolar/bronchiolar adenoma, dosed 78 weeks, study length 78 weeks): 243 mg/kg/day (inactive) | carcinogen call (mouse, strain B6C3F1, males, in feed, site: any site (literature study), lesion: several types, types named in the paper, dosed 78 weeks, study length 78 weeks): negative (inactive) | carcinogen call (mouse, strain B6C3F1, males, in feed, site: liver, lesion: hepatocellular adenoma, dosed 78 weeks, study length 78 weeks): negative (inactive) | TD50 (mouse, strain B6C3F1, males, in feed, site: liver, lesion: hepatocellular carcinoma, dosed 78 weeks, study length 78 weeks): 898 mg/kg/day (inactive) | carcinogen call (mouse, strain B6C3F1, males, in feed, site: lung, lesion: adenocarcinoma, dosed 78 weeks, study length 78 weeks): negative (inactive) | carcinogen call (mouse, strain B6C3F1, males, in feed, site: lung, lesion: alveolar/bronchiolar adenoma, dosed 78 weeks, study length 78 weeks): negative (inactive) | TD50 (rat, strain F344/DuCrj, females, in feed, site: any site (literature study), lesion: several types, types named in the paper, dosed 104 weeks, study length 104 weeks): 46.1 mg/kg/day (inactive) | TD50 (rat, strain F344/DuCrj, females, in feed, site: liver, lesion: hepatocellular adenoma, dosed 104 weeks, study length 104 weeks): 509 mg/kg/day (inactive) | carcinogen call (rat, strain F344/DuCrj, males, in feed, site: any site (literature study), lesion: several types, types named in the paper, dosed 104 weeks, study length 104 weeks): negative (inactive) | carcinogen call (rat, strain F344/DuCrj, males, in feed, site: liver, lesion: hepatocellular adenoma, dosed 104 weeks, study length 104 weeks): negative (inactive)

Cc1cc2ncccc2c2nc(N)n(C)c12
TD50 (mouse, strain C57BL/6NCrj, females, in feed, site: cecum, lesion: adenocarcinoma, dosed 85 weeks, study length 85 weeks): 50 mg/kg/day | TD50 (mouse, strain C57BL/6NCrj, females, in feed, site: colon, lesion: adenocarcinoma, dosed 85 weeks, study length 85 weeks): 92.8 mg/kg/day | TD50 (mouse, strain C57BL/6NCrj, females, in feed, site: large intestine, lesion: adenocarcinoma, dosed 85 weeks, study length 85 weeks): 32.3 mg/kg/day | TD50 (mouse, strain C57BL/6NCrj, females, in feed, site: liver, lesion: fibrosarcoma, dosed 85 weeks, study length 85 weeks): 20.7 mg/kg/day | TD50 (mouse, strain C57BL/6NCrj, females, in feed, site: liver, lesion: hepatocellular adenoma, dosed 85 weeks, study length 85 weeks): 80 mg/kg/day | TD50 (mouse, strain C57BL/6NCrj, females, in feed, site: liver, lesion: hepatocellular carcinoma, dosed 85 weeks, study length 85 weeks): 62.1 mg/kg/day | TD50 (mouse, strain CDF1, females, in feed, site: forestomach, lesion: several types, types named in the paper, dosed 91 weeks, study length 91 weeks): 10.7 mg/kg/day | TD50 (mouse, strain CDF1, females, in feed, site: forestomach, lesion: squamous-cell carcinoma, dosed 91 weeks, study length 91 weeks): 24.5 mg/kg/day | TD50 (mouse, strain CDF1, females, in feed, site: liver, lesion: hepatocellular carcinoma, dosed 91 weeks, study length 91 weeks): 65.6 mg/kg/day | TD50 (mouse, strain CDF1, females, in feed, site: liver, lesion: several types, types named in the paper, dosed 91 weeks, study length 91 weeks): 27.1 mg/kg/day | TD50 (mouse, strain CDF1, females, in feed, site: lung, lesion: several types, types named in the paper, dosed 91 weeks, study length 91 weeks): 25.1 mg/kg/day (inactive) | TD50 (mouse, strain CDF1, males, in feed, site: forestomach, lesion: several types, types named in the paper, dosed 91 weeks, study length 91 weeks): 14.5 mg/kg/day | TD50 (mouse, strain CDF1, males, in feed, site: forestomach, lesion: squamous-cell carcinoma, dosed 91 weeks, study length 91 weeks): 22.4 mg/kg/day | TD50 (mouse, strain CDF1, males, in feed, site: lung, lesion: several types, types named in the paper, dosed 91 weeks, study length 91 weeks): 148 mg/kg/day (inactive)

CC1CN(/N=C/c2ccc([N+](=O)[O-])o2)C(=O)N1 (stereo not given)
TD50 (rat, strain Sprague-Dawley, females, in feed, site: any site (literature study), lesion: several types, types named in the paper, dosed 46 weeks, study length 66 weeks): 5.59 mg/kg/day | TD50 (rat, strain Sprague-Dawley, females, in feed, site: mammary gland, lesion: adenocarcinoma, dosed 46 weeks, study length 66 weeks): 5.34 mg/kg/day

CCCCCCCCCCCC[N+](C)(C)[O-]
carcinogen call (rat, strain Fischer 344, females, in drinking water, site: liver, lesion: neoplastic nodule, dosed 93 weeks, study length 128 weeks): negative (inactive) | TD50 (rat, strain Fischer 344, males, in drinking water, site: liver, lesion: hepatocellular carcinoma, dosed 93 weeks, study length 128 weeks): 519 mg/kg/day (inactive) | TD50 (rat, strain Fischer 344, males, in drinking water, site: liver, lesion: neoplastic nodule, dosed 93 weeks, study length 128 weeks): 496 mg/kg/day (inactive) | TD50 (rat, strain Fischer 344, males, in drinking water, site: liver, lesion: several types, types named in the paper, dosed 93 weeks, study length 128 weeks): 231 mg/kg/day (inactive)

Cc1c(N)nc(C)c2c1[nH]c1ccccc12
TD50 (mouse, strain CDF1, females, in feed, site: liver, lesion: hepatocellular carcinoma, dosed 88 weeks, study length 88 weeks): 29.6 mg/kg/day | TD50 (mouse, strain CDF1, females, in feed, site: liver, lesion: several types, types named in the paper, dosed 88 weeks, study length 88 weeks): 25 mg/kg/day | TD50 (mouse, strain CDF1, males, in feed, site: liver, lesion: hepatocellular carcinoma, dosed 88 weeks, study length 88 weeks): 112 mg/kg/day | TD50 (mouse, strain CDF1, males, in feed, site: liver, lesion: several types, types named in the paper, dosed 88 weeks, study length 88 weeks): 109 mg/kg/day | TD50 (rat, strain F344/DuCrj, females, in feed, site: liver, lesion: hepatocellular carcinoma, dosed 52 weeks, study length 52 weeks): 0.577 mg/kg/day | TD50 (rat, strain F344/DuCrj, males, in feed, site: liver, lesion: hepatocellular carcinoma, dosed 52 weeks, study length 52 weeks): 0.574 mg/kg/day
